Experimental data from patent publication US20210244790A1 (priority 2018, published 2021).
In brackets after ≈: the same amount, converted by molar mass. Where two headings read alike, the source gives them in different places. Numbered stars: 1 amine (or outer) side, 2 acyl side, 3 side chain; on linkers, the order of the positions; unused ones are H or OH. Bridge positions count the residues as written; N and C are the ends. Square brackets hold non-standard residues; d marks the D form. Peptide text beside a SMILES is read from it. ξ: configuration not given here. ξAsn(3ξ-OH) = NC(=O)C(O)C(N)C(=O)O; X1 = CC(C)CCCC(CC(=O)[*:1])O[*:2]; NMeF = CN[CH](Cc1ccccc1)C(=O)O; NMeV = CN[CH](C(=O)O)C(C)C; Orn = NCCC[CH](N)C(=O)O

What was measured:
[1] = test system: methicillin-resistant Staphylococcus aureus (MRSA) on the skin; experiment: Efficacy evaluation test by single dose topical application in murine MRSA skin infection model; format: in vivo, mice; details: preliminary test
MRSA [2] = details: CAMHB with 5% FBS
[3] = test system: MRSA Used in Animal Model; experiment: microbe, parasite or virus in culture; details: Staphylococcus aureus
[4] = test system: clinically isolated MRSA strain; experiment: microbe, parasite or virus in culture; details: Staphylococcus aureus, read-out: anti-MRSA activity (MIC) of boric acid alone
MRSA [5] = experiment: microbe, parasite or virus in culture; details: Staphylococcus aureus, read-out: MIC in the presence of 5% FBS, Anti-MRSA activity of 3rd generation
Propionibacterium acnes [6] = experiment: microbe, parasite or virus in culture; details: Cutibacterium acnes, read-out: antibacterial activity (MIC) of boric acid alone
MRSA [7] = experiment: Additional cross MIC test using 5% FBS-added CAMHB, with FIC index; details: concentration of each component in the combination
Propionibacterium acnes [8] = experiment: Number of cells after 48 hour anaerobic incubation in 5% FBS-supplemented GAM medium; format: cell-based; details: lotilibcin 0.1 μg/mL alone, initial 2.8 × 10^6
MRSA [9] = test system: MRSA
[10] = read-out: Minimum Inhibitory Concentration Against MRSA Used in Animal Model (MIC), CAMHB, no 5% FBS
[11] = read-out: Minimum Inhibitory Concentration Against MRSA Used in Animal Model (MIC), CAMHB, with 5% FBS

| Compound | change in the number of cells (CFUs in skin tissue) ([1]; 1% boric acid alone, single topical dose) | antibacterial efficacy in animal infection models ([1]; boric acid alone 0.1% to 1%) | minimum concentration of boric acid necessary for enhancing the anti-MRSA activity of lotilibcin (MRSA [2]) | MIC [3, 10] | MIC [3, 11] | MIC ([3]; read-out: concentration exhibiting antibacterial activity (MIC), used solely, not influenced by presence or absence of serum component (FBS)) | MIC [4] | MIC (MRSA [5]) | MIC (Propionibacterium acnes [6]) | point of synergy (concentration) in table 7 (MRSA [7]) | antibacterial efficacy (change in number of CFUs in skin tissue) ([1]; 0.5% lotilibcin alone, single topical dose) | antibacterial efficacy (change in number of CFUs in skin tissue) ([1]; lotilibcin alone 0.02%, 0.2%, 0.5%, single topical dose, 24 hours) | Number of cells After 48 hours (Propionibacterium acnes [8]) | MIC in the presence of 5% FBS, Anti-MRSA activity of 1st generation (MRSA [9]; 1st generation bacteria) | MIC in the presence of 5% FBS, Anti-MRSA activity of 3rd generation (MRSA [9]; 3rd generation bacteria, test substance alone) | Antibacterial activity of lotilibcin (MIC) (Bacillus anthracis; No serum) | Antibacterial activity of lotilibcin (MIC) (Bacillus anthracis; With serum (5% FBS)) |
| --- | --- | --- | --- | --- | --- | --- | --- | --- | --- | --- | --- | --- | --- | --- | --- | --- | --- |
| OB(O)O [Boric acid] | on the same level as or worse than the result of the negative control | no antibacterial efficacy | 100 µg/mL | 2500 µg/mL (≈ 40.4 mM) | 2500 µg/mL (≈ 40.4 mM) | 2500 µg/mL (≈ 40.4 mM) | 2500 µg/mL (≈ 40.4 mM) | 5000 µg/mL | 1250 µg/mL (≈ 20.2 mM) | 313 µg/mL | – | – | – | – | – | – | – |
| CC(C)CCCC1CC(=O)NC(CO)C(=O)NC(C(O)C(N)=O)C(=O)NC(CO)C(=O)NCC(=O)N(C)C(Cc2ccccc2)C(=O)NC(CC(C)C)C(=O)NC(CCCN)C(=O)NC(CCC(=O)O)C(=O)NC(CC(N)=O)C(=O)NC(Cc2c[nH]c3ccccc23)C(=O)NC(CCCN)C(=O)N(C)C(C(C)C)C(=O)O1 (centres unmarked) [Lotilibcin, lotilibcin] (S[ξAsn(3ξ-OH)]SG[NMeF]L[Orn]ENW[Orn][NMeV]; linker N-C via X1; configuration not given here) | – | – | – | – | – | – | – | – | – | 0.03 µg/mL | comparable to that of 2% mupirocin | dose-dependent efficacy | 1.3 × 10^6 CFU/mL | 0.25 µg/mL | 32 µg/mL | 1.0 µg/mL | 0.1 µg/mL |
| C/C(=C\C(=O)OCCCCCCCCC(=O)O)C[C@@H]1OC[C@H](C[C@@H]2O[C@H]2[C@@H](C)[C@H](C)O)[C@@H](O)[C@H]1O [Mupirocin, mupirocin] | – | – | – | 0.125 µg/mL (≈ 0.00025 mM) | 0.5 µg/mL (≈ 0.000999 mM) | – | – | – | – | – | – | – | – | – | – | – | – |
